Experimental findings from patent US11572362B2, “Pyrrolo[1,2-b]pyridazine derivatives” (Gilead Sciences, Inc., priority 2018, dated 2023) are described below.

One assay concerns TNFα. Nature of the assay: IRAK4 Monocyte TNFα Cell Based Assay. The settings on record: Monocyte; cryopreserved human monocytes, 50 pg/ml LPS, compound 1 hour pre-treatment, 4 hours stimulation, TNFα by TR-FRET. The procedure: IRAK4 Monocyte TNFα Cell Based Assay Procedure:
The cell suspension was then plated at a density of 5,000 cells/well onto black 384 well Greiner clear bottom plates. Plates were pre-spotted with test compounds and serially diluted in DMSO where 40 nL/well were delivered using the Echo 550 acoustic liquid dispenser (Labcyte®) for a final DMSO concentration of 0.1%. Plated cells were treated with compound for 1 hour at 37° C. Cells were then stimulated with 50 pg/ml of LPS (Sigma) excluding outside columns of plate used for unstimulated cell control wells. Cells were incubated for an additional 4 hours at 37° C. Cells were then spun out of the media and 5 μl of sample were taken and analyzed for total TNFα content using the TR-FRET Human TNFα detection system (CisBio). This system utilizes two labeled antibodies (cryptate and XL665) that bind to two different epitopes of the TNFα molecule and produce FRET signal proportional to the concentration of TNFα in the sample. Detection antibodies are mixed 50:50 and 5 μL were dispensed into each well. Plates were covered with clear seals and incubated at room temp overnight. The following morning plates were read using an Envision 2103 Multilabeled reader (PerkinElmer) with excitation/emission/FRET emission at 340 nm/615 nm/665 nm, respectively. Fluorescence intensities at 615 nm and 665 nm emission wavelengths were expressed as a ratio (665 nm/615 nm). Percent of control was calculated as follows: % Control=100×(RatioSample−Ratio0% Stimulation)/(Ratio100% Stimulation−Ratio0% Stimulation)
where unstimulated cells (0% stimulation) were the negative control and stimulated cells (100% stimulation) were used as the positive control.
For orientation: Time-resolved FRET reads energy transfer from a long-lived donor to a nearby acceptor.

The target of another assay is IRAK4 (Homo sapiens (Human), UniProt Q9NWZ3). Nature of the assay: IRAK4 Biochemical Assay (TR-FRET/HTRF). The note with it: IRAK4 enzyme 0.75 nM, 500 μM ATP, 2 μM STK1 peptide, 120 min. The procedure:
IRAK4 Biochemical Assay Procedure:
IRAK4 enzyme (Carna Biosciences, Chuo-ku, Kobe, Japan) activity was measured by detecting phosphorylated peptide substrate formation using an antibody against the phosphorylated peptide substrate. This is a time-resolved fluorescence resonance energy transfer (TR-FRET) immunoassay, based on the STK1 KinEASE Assay (Cisbio, Bedford, Mass.). The assay was designed as a simple two-step, endpoint assay (a 5 μl enzyme reaction followed by 5 μl stop and detect Solution) performed in ProxiPlate-384 Plus plates (Perkin Elmer, Waltham, Mass.). Staurosporine, a non-selective kinase inhibitor was used as a positive control. Compounds diluted in DMSO were spotted into 384 well plates using a Labcyte® Echo 550 Liquid Handling System prior to addition of IRAK4 enzyme and peptide substrate. Reaction solutions were delivered using a Multi-Flo (Bio-Tek Instruments). The enzyme and peptide solution was incubated with compound for 15 minutes at room temp before the reaction was initiated by the addition of ATP. The standard 5 μl reaction mixture contained 500 μM ATP, 2 μM peptide (STK1 Peptide), 0.75 nM of IRAK4 in reaction buffer (50 mM HEPES, pH 7.0, 0.02% NaN3, 0.01% BSA, 0.1 mM Orthovanadate, 5 mM MgCl2, 0.025% NP-40, 1 mM DTT). After 120 min of incubation at room temperature, 5 μl of Stop and Detect Solution (1:100 Cryptate labeled anti-phosphorylated peptide antibody solution and 125 nM Tracer in a 50 mM HEPES pH 7.0 detection buffer containing sufficient EDTA) was added. The plate was then further incubated for 60 minutes at room temperature and read on Envision 2103 Multilabeled reader (PerkinElmer) with excitation/emission/FRET emission at 340 nm/615 nm/665 nm, respectively. Fluorescence intensities at 615 nm and 665 nm emission wavelengths were expressed as a ratio (665 nm/615 nm). Percentage of inhibition was calculated as below: % Inhibition=100×(RatioSample−Ratio0% Inhibition)/(Ratio100% Inhibition−Ratio0% Inhibition)
The 0% inhibition value comes from control wells lacking inhibitor. The 100% inhibition value comes from control wells containing a saturating amount of known inhibitor staurosporine.

Chain of IRAK4 (Q9NWZ3 whole entry): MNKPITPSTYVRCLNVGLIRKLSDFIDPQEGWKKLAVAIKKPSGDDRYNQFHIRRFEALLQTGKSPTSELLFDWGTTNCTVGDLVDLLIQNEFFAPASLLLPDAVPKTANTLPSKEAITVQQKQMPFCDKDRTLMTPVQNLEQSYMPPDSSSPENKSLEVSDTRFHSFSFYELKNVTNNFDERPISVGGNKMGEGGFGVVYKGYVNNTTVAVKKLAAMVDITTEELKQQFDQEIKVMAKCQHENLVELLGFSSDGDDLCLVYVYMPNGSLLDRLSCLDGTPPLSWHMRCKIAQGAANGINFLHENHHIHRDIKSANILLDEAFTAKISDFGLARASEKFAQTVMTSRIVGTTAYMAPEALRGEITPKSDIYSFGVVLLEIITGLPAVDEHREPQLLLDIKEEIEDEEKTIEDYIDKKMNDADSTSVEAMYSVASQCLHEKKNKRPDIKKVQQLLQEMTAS

For `CC(C)(O)[C@H](F)CNC(=O)c1cnc(-c2ccc3cc(C#N)cnn23)cc1N[C@H]1CC[C@H](c2cnn(C3CC3)c2)CC1` [Compound 14, 6-(3-cyanopyrrolo[1,2-b]pyridazin-7-yl)-4-(((1r,4R)-4-(1-cyclopropyl-1H-pyrazol-4-yl)cyclohexyl)amino)-N-((R)-2-fluoro-3-hydroxy-3-methylbutyl)nicotinamide], the EC50 – broadly, the midpoint of the concentration-response curve – in the assay on TNFα was 53 nM. For the same compound, the IC50 – broadly, the concentration at which inhibition is half-maximal – on IRAK4 came out at 1 nM.

For the compound `Cn1nnc([C@H]2CC[C@H](Nc3cc(-c4ccc5cc(C#N)cnn45)ncc3C(=O)NC[C@@H](F)C(C)(C)O)CC2)n1` [Compound 15, 6-(3-cyanopyrrolo[1,2-b]pyridazin-7-yl)-N-((R)-2-fluoro-3-hydroxy-3-methylbutyl)-4-(((1r,4R)-4-(2-methyl-2H-tetrazol-5-yl)cyclohexyl)amino)nicotinamide], in the assay on TNFα, the EC50 was 35 nM. On IRAK4, the IC50 was below 1 nM.

For `Cn1nnnc1[C@H]1CC[C@H](Nc2cc(-c3ccc4cc(C#N)cnn34)ncc2C(=O)NC[C@@H](F)C(C)(C)O)CC1` [Compound 16, 6-(3-cyanopyrrolo[1,2-b]pyridazin-7-yl)-N-((R)-2-fluoro-3-hydroxy-3-methylbutyl)-4-(((1r,4R)-4-(1-methyl-1H-tetrazol-5-yl)cyclohexyl)amino)nicotinamide], in the assay with TNFα, the 50% effective concentration (EC50) came to 26 nM. At IRAK4, this compound showed an IC50 below 1 nM.

In the case of `CC(C)(O)[C@H](F)CNC(=O)c1cnc(-c2ccc3cc(C#N)cnn23)cc1N[C@H]1CC[C@H](c2cn(C(F)F)cn2)CC1` [Compound 17, 6-(3-cyanopyrrolo[1,2-b]pyridazin-7-yl)-4-(((1r,4R)-4-(1-(difluoromethyl)-1H-imidazol-4-yl)cyclohexyl)amino)-N-((R)-2-fluoro-3-hydroxy-3-methylbutyl)nicotinamide], the EC50 in the assay with TNFα came out at 33 nM. On IRAK4, this compound had a 50% inhibitory concentration (IC50) of 1 nM.

Regarding `CC(C)(O)[C@H](F)CNC(=O)c1cnc(-c2ccc3cc(C#N)cnn23)cc1N[C@H]1CC[C@H](c2cn(C(F)F)nn2)CC1` [Compound 18, 6-(3-cyanopyrrolo[1,2-b]pyridazin-7-yl)-4-(((1r,4R)-4-(1-(difluoromethyl)-1H-1,2,3-triazol-4-yl)cyclohexyl)amino)-N-((R)-2-fluoro-3-hydroxy-3-methylbutyl)nicotinamide], in the assay on TNFα, the EC50 came out at 27 nM. Also, the IC50 against IRAK4 came to 1 nM.

For the compound `Cn1cc([C@H]2CC[C@H](Nc3cc(-c4ccc5cc(C#N)cnn45)ncc3C(=O)NC[C@@H](F)C(C)(C)O)CC2)nn1` [Compound 19, 6-(3-cyanopyrrolo[1,2-b]pyridazin-7-yl)-N-((R)-2-fluoro-3-hydroxy-3-methylbutyl)-4-(((1r,4R)-4-(1-methyl-1H-1,2,3-triazol-4-yl)cyclohexyl)amino)nicotinamide], the EC50 with TNFα was found to be 26 nM. Moreover, the IC50 on IRAK4 was below 1 nM.

Regarding `CC(C)(O)[C@H](F)CNC(=O)c1cnc(-c2ccc3cc(C#N)cnn23)cc1N[C@H]1CC[C@H](c2cn(C3CC3)nn2)CC1` [Compound 20, 6-(3-cyanopyrrolo[1,2-b]pyridazin-7-yl)-4-(((1r,4R)-4-(1-cyclopropyl-1H-1,2,3-triazol-4-yl)cyclohexyl)amino)-N-((R)-2-fluoro-3-hydroxy-3-methylbutyl)nicotinamide], the EC50 in the assay on TNFα was 49 nM. The same compound had an IC50 on IRAK4 of 1 nM.

For `CC(C)(O)[C@H](F)CNC(=O)c1cnc(-c2ccc3cc(C#N)cnn23)cc1NC1CCC(c2ncn(C(F)F)n2)CC1` (stereo partly drawn) [Compound 21, (R)-6-(3-cyanopyrrolo[1,2-b]pyridazin-7-yl)-4-((4-(1-(difluoromethyl)-1H-1,2,4-triazol-3-yl)cyclohexyl)amino)-N-(2-fluoro-3-hydroxy-3-methylbutyl)nicotinamide], the EC50 in the assay with TNFα is 60 nM. For the same compound, half-maximal inhibition against IRAK4 (IC50) was put at 2 nM.

As for `CC(C)(O)[C@H](F)CNC(=O)c1cnc(-c2ccc3cc(C#N)cnn23)cc1N[C@H]1CC[C@H](c2ncn(C(F)F)n2)CC1` [Compound 22, 6-(3-cyanopyrrolo[1,2-b]pyridazin-7-yl)-4-(((1r,4R)-4-(1-(difluoromethyl)-1H-1,2,4-triazol-3-yl)cyclohexyl)amino)-N-((R)-2-fluoro-3-hydroxy-3-methylbutyl)nicotinamide], the EC50 in the assay with TNFα was 67 nM. The same compound had a half-inhibitory concentration (IC50) against IRAK4 of 2 nM.

Consider `CC(C)(O)[C@H](F)CNC(=O)c1cnc(-c2ccc3cc(C#N)cnn23)cc1N[C@H]1CC[C@H](n2ccc(C(F)F)n2)CC1` [Compound 23, 6-(3-cyanopyrrolo[1,2-b]pyridazin-7-yl)-4-(((1r,4R)-4-(3-(difluoromethyl)-1H-pyrazol-1-yl)cyclohexyl)amino)-N-((R)-2-fluoro-3-hydroxy-3-methylbutyl)nicotinamide], for which the EC50 in the assay on TNFα amounted to 38 nM. At IRAK4, this compound yielded a concentration for half-maximal inhibition (IC50) of 1 nM.

Regarding `CC(C)(O)[C@H](F)CNC(=O)c1cnc(-c2ccc3cc(C#N)cnn23)cc1N[C@H]1CC[C@H](n2cc(C#N)cn2)CC1` [Compound 24, 4-(((1r,4R)-4-(4-cyano-1H-pyrazol-1-yl)cyclohexyl)amino)-6-(3-cyanopyrrolo[1,2-b]pyridazin-7-yl)-N-((R)-2-fluoro-3-hydroxy-3-methylbutyl)nicotinamide], in the assay with TNFα, the 50% effective concentration (EC50) is 19 nM. For the same compound, the IC50 against IRAK4 is below 1 nM.

On to `CC(C)(O)[C@H](F)CNC(=O)c1cnc(-c2ccc3cc(C#N)cnn23)cc1N[C@H]1CC[C@H](n2cc(F)cn2)CC1` [Compound 25, 6-(3-cyanopyrrolo[1,2-b]pyridazin-7-yl)-4-(((1r,4R)-4-(4-fluoro-1H-pyrazol-1-yl)cyclohexyl)amino)-N-((R)-2-fluoro-3-hydroxy-3-methylbutyl)nicotinamide], for which, in the assay on TNFα, the EC50 is 29 nM. The same compound registered an IC50 at IRAK4 of 2 nM.

Turning to `Cc1cnn([C@H]2CC[C@H](Nc3cc(-c4ccc5cc(C#N)cnn45)ncc3C(=O)NC[C@@H](F)C(C)(C)O)CC2)c1` [Compound 26, 6-(3-cyanopyrrolo[1,2-b]pyridazin-7-yl)-N-((R)-2-fluoro-3-hydroxy-3-methylbutyl)-4-(((1r,4R)-4-(4-methyl-1H-pyrazol-1-yl)cyclohexyl)amino)nicotinamide], the EC50 in the assay with TNFα turned out to be 91 nM. The compound further showed an IC50 at IRAK4 below 1 nM.

As for `CC(C)(O)[C@H](F)CNC(=O)c1cnc(-c2ccc3cc(C#N)cnn23)cc1N[C@H]1CC[C@H](n2cc(CC#N)cn2)CC1` [Compound 27, 4-(((1r,4R)-4-(4-(cyanomethyl)-1H-pyrazol-1-yl)cyclohexyl)amino)-6-(3-cyanopyrrolo[1,2-b]pyridazin-7-yl)-N-((R)-2-fluoro-3-hydroxy-3-methylbutyl)nicotinamide], the EC50 in the assay on TNFα is 58 nM. Moreover, the 50% inhibitory concentration (IC50) against IRAK4 was below 1 nM.

Regarding `CC(C)(O)[C@H](F)CNC(=O)c1cnc(-c2ccc3cc(C#N)cnn23)cc1N[C@H]1CC[C@H](n2nccc2C(F)F)CC1` [Compound 28, 6-(3-cyanopyrrolo[1,2-b]pyridazin-7-yl)-4-(((1r,4R)-4-(5-(difluoromethyl)-1H-pyrazol-1-yl)cyclohexyl)amino)-N-((R)-2-fluoro-3-hydroxy-3-methylbutyl)nicotinamide], the EC50 with TNFα was 187 nM. At IRAK4, this compound had an IC50 of 2 nM.

In the case of `CC(C)(O)[C@H](F)CNC(=O)c1cnc(-c2ccc3cc(C#N)cnn23)cc1N[C@H]1CC[C@H](n2nc(C(F)F)cc2C(F)F)CC1` [Compound 29, 4-(((1r,4R)-4-(3,5-bis(difluoromethyl)-1H-pyrazol-1-yl)cyclohexyl)amino)-6-(3-cyanopyrrolo[1,2-b]pyridazin-7-yl)-N-((R)-2-fluoro-3-hydroxy-3-methylbutyl)nicotinamide], the 50% effective concentration (EC50) in the assay with TNFα was 381 nM. On IRAK4, this compound displayed an IC50 of 7 nM.
